Data: patent publication US20110143939A1, “QUINOXALIN-2-ONE DERIVATIVES, COMPOSITIONS WHICH PROTECT USEFUL PLANTS AND COMPRISE THESE DERIVATIVES, AND PROCESSES FOR THEIR PREPARATION AND THEIR USE” (Bayer CropScience AG, priority 2004, published 2011)

Row | SMILES | melting point
1 | O=c1c(-c2cccs2)nc2ccccc2n1CC1CCC1 | 103 °C
2 | Cl.NCCn1c(=O)c(-c2cccs2)nc2ccccc21 | > 250 °C
3 | Nn1c(=O)c(-c2cccs2)nc2ccccc21 | 164 °C
4 | CS(=O)(=O)NCCn1c(=O)c(-c2cccs2)nc2ccccc21 | 236 to 237 °C
5 | O=c1c(-c2cccs2)nc2ccccc2n1CC1CCCO1 (centres unmarked) | 123 °C
6 | O=c1[nH]c2cc3c(cc2nc1-c1ccccc1)OC(F)(F)O3 | 291 to 292 °C
7 | Cn1c(=S)c(-c2cccs2)nc2ccccc21 | 113 °C
8 | Cn1c(=O)c(-c2ccccc2)nc2cc3c(cc21)OC(F)(F)O3 | 165 °C
